# Measurements reported in patent US20200386742A1, “CELL SYSTEMS USING SPHEROIDS AND METHODS OF MAKING AND USING THE SAME” (priority 2017, published 2020).
# Test system: embryonic dorsal root ganglion (DRG) explants
# Type: cell-based
smiles,measurement,value
NC1=N[C@H](O)[C@H]2[C@H]3O[C@]4(O)O[C@@H]([C@@H](O)[C@@]2(N1)[C@@H]4O)[C@]3(O)CO [tetrodotoxin],effect on electrically evoked compound action potentials (CAPs),reversibly abolished
